# Data reported in the SangsterLogP compilation.
# Experiment: method code SF-AS, from DOI: 10.1021/acs.jmedchem.6b01691, PMID: 28051859
row,logP,SMILES
1,2.77,CSc1ccc(F)cc1
2,2.54,O=[N+]([O-])c1ccc(SC(F)F)cc1
3,2.89,FC(F)Sc1ccccc1
4,2.64,CSc1ccc([N+](=O)[O-])cc1
5,3.01,CSc1ccc(Cl)cc1
6,2.69,FC(F)Oc1cccc(C(F)(F)F)c1
7,2.47,Fc1ccc(OC(F)F)cc1
8,1.98,O=[N+]([O-])c1ccc(OC(F)F)cc1
9,2.79,COc1cccc(C(F)(F)F)c1
10,2.78,CSc1ccc(Br)cc1
11,2.87,COc1ccc(C(F)(F)F)cc1
12,2.69,COc1ccc(C(=O)c2ccccc2)cc1
13,2.35,COc1ccc(OC(F)F)cc1
14,2.66,COc1ccc(SC)cc1
15,2.96,FC(F)Sc1ccc(Br)cc1
16,3.41,Cc1ccc(SC(F)F)cc1
17,3.11,COc1ccc(SC(F)F)cc1
18,2.88,Cc1ccc(OC(F)F)cc1
19,2.76,FC(F)Oc1ccc(C(F)(F)F)cc1
20,2.59,Fc1cccc(OC(F)F)c1
21,2.56,COc1ccc(C)cc1
22,3.01,CSc1ccc(C)cc1
23,2.42,CC(=O)Nc1ccc(SC(F)F)cc1
24,2.6,CSc1ccccc1
25,2.43,COc1cccc(F)c1
26,2.14,COc1ccc(F)cc1
27,2.87,Cc1cccc(OC(F)F)c1
28,3.24,FC(F)Sc1ccc(Cl)cc1
29,2.92,Fc1ccc(SC(F)F)cc1
